{"source": "patent US4661494A", "about": "(priority 1985, dated 1987)", "assay_type_in_all_cases": "in vivo", "key": {"[1]": {"test_system": "Grape Downy Mildew organism Plasmopara viticola", "assay": "Grape Downy Mildew control, detached grape leaves", "settings": "held 7 to 9 days after 2 days incubation", "method": "The compounds of the invention were tested for the control of the Grape Downy Mildew organism Plasmopara viticola. Detached leaves, between 70 mm and 85 mm in diameter, 7-week-old Vitis vinifera cultivar Emperor grape seedlings were used as hosts. The leaves were sprayed with a 250-ppm solution of the test compound in acetone. The sprayed leaves were dried, inoculated with a spore suspension of the organism, placed in a humid environmental chamber and incubated at 66° F. to 68° F. and about 100% relative humidity. After incubation for 2 days, the plants were then held in a greenhouse 7 to 9 days; then the amount of disease control was determined. The percent disease control provided by a given test compound was based on the percent disease reduction relative to untreated check plants."}, "[2]": {"test_system": "Tomato Late Blight organism Phytophthora infestans", "assay": "whole plant or invertebrate"}, "[3]": {"test_system": "Celery Late Blight organism Septoria apii", "assay": "whole plant or invertebrate"}, "[4]": {"test_system": "Tomato Early Blight organism Alternaria solani conidia", "assay": "Tomato Early Blight control, tomato seedlings", "settings": "inoculated 1 day later, about 12 days", "method": "Compounds of the invention were tested for the control of the Tomato Early Blight organism Alternaria solani conidia. Tomato (variety Bonny Best) seedlings of 6- to 7-weeks old were used. The tomato plants were sprayed with a 250-ppm solution of the test compound in an acetone-and-water solution containing a small amount of a nonionic emulsifier. The sprayed plants were inoculated 1 day later with the organism, placed in the environmental chamber and incubated at 66° F. to 68° F. and 100% relative humidity for 24 hours. Following the incubation, the plants were maintained in a greenhouse for about 12 days. Percent disease control was based on the percent disease development on untreated check plants."}, "Uromyces phaseoli tipica": {"test_system": "Uromyces phaseoli tipica", "assay": "Leaf Rust (Bean Rust) control, pinto beans", "settings": "about 14 days", "method": "The Leaf Rust test was made using pinto beans. The pathogen was Uromyces phaseoli tipica. The pinto bean plants were sprayed with a 250-ppm solution of the test compound in an acetone-water mixture containing a nonionic emulsifier. The treated plants were inoculated thereafter with the pathogen and then incubated in an environmental chamber for approximately 20 hours at 100% relative humidity and a temperature of 68° F. to 70° F. The plants were then removed from the chamber, allowed to dry, and then maintained in a greenhouse at a 60% to 80% relative humidity. The rate of infection on the leaves was made after about 14 days. The percent disease control provided by a given test compound was based on the percent disease reduction relative to untreated check plants."}, "[5]": {"test_system": "Bean Powdery Mildew organism Erysiphe polygoni", "assay": "Bean Powdery Mildew control, seedling bean plants", "settings": "inoculated 1 day later, 10 days", "method": "The compounds of the invention were tested for the control of the Bean Powdery Mildew organism Erysiphe polygoni. Seedling bean plants were sprayed with a 250-ppm solution of the test compound in acetone, water and a nonionic emulsifier. The sprayed plants were then inoculated 1 day later with the organism. The plants were maintained for 10 days at temperatures of 68° F. at night with daytime temperatures of 72° F. to 80° F.; relative humidity was maintained at 40% to 60%. The percent disease control provided by a given test compound was based on the percent disease reduction relative to the untreated check plants."}, "[6]": {"test_system": "Rice Blast organism Piricularia oryzae", "assay": "whole plant or invertebrate"}}}
{"smiles": "CCCN(CC(=O)Nc1c(Cl)cc(Cl)cc1Cl)C(=O)c1cccnc1", "note": "[Compound 1, N-(2,4,6-trichlorophenyl), N'-(n-propyl), N'-(3-pyridylcarbonyl) glycinamide]", "values": [{"measurement": "activity at 250 ppm", "setting": "[1]; Plasmopara viticola, in Vitis vinifera, read-out: Fungicidal Activity % Control GDM", "result": 3, "unit": "%"}, {"measurement": "activity at 250 ppm", "setting": "[2]; Phytophthora infestans, read-out: Fungicidal Activity % Control TLB", "result": 0, "unit": "%"}, {"measurement": "activity at 250 ppm", "setting": "[3]; 336 h, read-out: Fungicidal Activity % Control CLB", "result": 50, "unit": "%"}, {"measurement": "activity at 250 ppm", "setting": "[4]; Alternaria solani, read-out: Fungicidal Activity % Control TEB", "result": 85, "unit": "%"}, {"measurement": "activity at 250 ppm", "setting": "Uromyces phaseoli tipica; Uromyces phaseoli, 336 h, read-out: Fungicidal Activity % Control BR", "result": 4, "unit": "%"}, {"measurement": "activity at 250 ppm", "setting": "[5]; Erysiphe polygoni, read-out: Fungicidal Activity % Control BPM", "result": 100, "unit": "%"}, {"measurement": "activity at 625 ppm", "setting": "[6]; Pyricularia oryzae, read-out: Fungicidal Activity % Control RB", "result": 0, "unit": "%"}]}
{"smiles": "CCCN(CC(=O)Nc1c(C)cccc1C)C(=O)c1cccnc1", "note": "[Compound 2, N-(2,6-dimethylphenyl)-N'-(n-propyl), N'-(3-pyridylcarbonyl) glycinamide]", "values": [{"measurement": "Fungicidal Activity % Control GDM", "setting": "[1]; 250 ppm, detached Vitis vinifera leaves", "result": 7, "unit": "%"}, {"measurement": "Fungicidal Activity % Control TLB", "setting": "[2]; 250 ppm, tomato, inoculated 1 day later, approximately 7 days", "result": 10, "unit": "%"}, {"measurement": "Fungicidal Activity % Control CLB", "setting": "[3]; 250 ppm, celery (Utah), approximately 14 days", "result": 58, "unit": "%"}, {"measurement": "Fungicidal Activity % Control TEB", "setting": "[4]; 250 ppm", "result": 22, "unit": "%"}, {"measurement": "Fungicidal Activity % Control BR", "setting": "Uromyces phaseoli tipica; 250 ppm", "result": 0, "unit": "%"}, {"measurement": "Fungicidal Activity % Control BPM", "setting": "[5]; 250 ppm", "result": 53, "unit": "%"}, {"measurement": "Fungicidal Activity % Control RB", "setting": "[6]; 625 ppm, rice (Calrose M-9), inoculated 1 day later, about 12 to 16 days", "result": 0, "unit": "%"}]}
